Source: PMC7046553, “Backbone Cyclization and Dimerization of LL-37-Derived Peptides Enhance Antimicrobial Activity and Proteolytic Stability” (Frontiers in Microbiology, 2020)
Converted amounts (≈) assume the structure as drawn. Where two headings read alike, the source gives them in different places. Where a SMILES comes first, the peptide text is derived from it. Where no end group is shown, it is not given here.

Key:
[1] = system: Staphylococcus aureus ATCC 29213; settings: ATCC 29213, 5 h
Description: (§1) The three bacterial strains: Escherichia coli ATCC 25922, Pseudomonas aeruginosa ATCC 27853 Staphylococcus aureus ATCC 29213 as well as the fungal strain Candida albicans ATCC 90028 derived from clinical wound infections were obtained from the Department of Clinical Bacteriology at Lund University Hospital.
(§2) Antimicrobial activities of the peptides were evaluated using the two-step microdilution assay ([Strömstedt et al., 2017]), which is designed for testing AMPs without activity-inhibiting components. Briefly, the microbial suspension was washed twice with 10 mM Tris buffer (set to pH 7.4 at 37°C). 96-well plates (U-shaped, untreated polystyrene) were prepared with peptide 2-fold serial dilutions in Tris buffer. The culture density was quantified by OD600, diluted in Tris buffer and 50,000 cells aliquoted to each well in the 96-well plate to a final 100 μl volume. After 5 h of aerobic incubation at 37°C, 5 μl of 20% TSB medium was added to each well (resulting in 1% TSB) and the plates were re-incubated. Growth-inhibition was monitored when controls produced pellet sizes of 2 mm in diameter (close to growth saturation), which equates to 5, 8, 10, and 12 h for E. coli, S. aureus, P. aeruginosa, and C. albicans, respectively. […] The MIC-values in Table 1, are medians from triplicate experiments, while the data presented in the Figure 2 are the same values relative to that of KR-12.

[2] = system: Escherichia coli ATCC 25922; settings: ATCC 25922, 5 h
Description: as §1, §2

[3] = system: Candida albicans ATCC 90028
Description: as §1, §2

[4] = system: Pseudomonas aeruginosa ATCC 27853
Description: as §1, §2

in vitro = settings: human, 25% human serum
Description: Proteolytic stability of the peptides were determined in diluted human serum (1:4 v/v, serum:PBS) at 37°C followed by LC-MS analysis. To examine the intact peptide after serum incubation, aliquots of each incubation mixture were taken at each time point for LC-MS analysis (Figure 5).
Peptide stability was assayed in diluted human serum. 25% human serum was centrifuged at 13,000 rpm for 10 min to remove lipids and the supernatant was collected and incubated at 37°C for 15 min. […] Eighty μl of 6 M urea was added and incubated at 4°C for a further 10 min. 80 μl of 20% TCA was added and incubated at 4°C for a further 10 min. The samples were centrifuged at 13000 g for 10 min and the supernatant was analyzed by LC-MS.

[5] = median of triplicate experiments

Molecule	MIC S. aureus [1] [µM]	MIC E. coli [2] [µM]	MIC C. albicans ([3]; ATCC 90028, 5 h) [µM]	MIC P. aeruginosa ([4]; ATCC 27853, 5 h) [µM]	fold lower MIC compared to KR-12, C. albicans [3] [fold]	MIC C. albicans [3, 5] [µM]	MIC P. aeruginosa [4, 5] [µM]	remaining at 6 h (in vitro) [%]	remaining at 24 h (in vitro) [%]
CC[C@H](C)[C@@H]1NC(=O)[C@H](CCCNC(=N)N)NC(=O)[C@H](CCC(N)=O)NC(=O)[C@H](C(C)C)NC(=O)[C@H]([C@@H](C)CC)NC(=O)[C@H](CCCNC(=N)N)NC(=O)[C@H](CCCCN)NC(=O)CNC(=O)[C@H](C)NC(=O)CNC(=O)[C@H](CCCNC(=N)N)NC(=O)[C@H](CC(C)C)NC(=O)[C@H](Cc2ccccc2)NC(=O)[C@H](CC(=O)O)NC(=O)[C@H](CCCCN)NC(=O)[C@H]([C@@H](C)CC)NC(=O)[C@H](CCCNC(=N)N)NC(=O)[C@H](CCC(N)=O)NC(=O)[C@H](C(C)C)NC(=O)[C@H]([C@@H](C)CC)NC(=O)[C@H](CCCNC(=N)N)NC(=O)[C@H](CCCCN)NC(=O)CNC(=O)[C@H](C)NC(=O)CNC(=O)[C@H](CCCNC(=N)N)NC(=O)[C@H](CC(C)C)NC(=O)[C@H](Cc2ccccc2)NC(=O)[C@H](CC(=O)O)NC(=O)[C@H](CCCCN)NC1=O [cd3] (cyclo(AGKRIVQRIKDFLRGAGKRIVQRIKDFLRG))	1.25 (≈ 4.35 µg/mL)	0.625 (≈ 2.17 µg/mL)	1.25 (≈ 4.35 µg/mL)	0.625 (≈ 2.17 µg/mL)	–	–	–	–	–
CGGKRIVQRIKDFLRGAGGRLFDKIRQVIRKG-NH2 (C-terminus assumed) [retro-ld4*]	1.25	0.625	0.625	0.625	16	–	–	–	–
CC[C@H](C)[C@@H]1NC(=O)[C@H](CCCCN)NC(=O)[C@H](CC(=O)O)NC(=O)[C@H](Cc2ccccc2)NC(=O)[C@H](CC(C)C)NC(=O)[C@H](CCCNC(=N)N)NC(=O)[C@H](C)NC(=O)CNC(=O)[C@H](CCCNC(=N)N)NC(=O)[C@H](CC(C)C)NC(=O)[C@H](Cc2ccccc2)NC(=O)[C@H](CC(=O)O)NC(=O)[C@H](CCCCN)NC(=O)[C@H]([C@@H](C)CC)NC(=O)[C@H](CCCNC(=N)N)NC(=O)[C@H](CCC(N)=O)NC(=O)[C@H](C(C)C)NC(=O)[C@H]([C@@H](C)CC)NC(=O)[C@H](CCCNC(=N)N)NC(=O)[C@H](CCCCN)NC(=O)[C@H](C)NC(=O)CNC(=O)[C@H](CCCCN)NC(=O)[C@H](CCCNC(=N)N)NC(=O)[C@H]([C@@H](C)CC)NC(=O)[C@H](C(C)C)NC(=O)[C@H](CCC(N)=O)NC(=O)[C@H](CCCNC(=N)N)NC1=O [retro-cd2] (cyclo(AKRIVQRIKDFLRGARLFDKIRQVIRKG))	1.25 (≈ 4.21 µg/mL)	0.625 (≈ 2.1 µg/mL)	2.5 (≈ 8.41 µg/mL)	1.25 (≈ 4.21 µg/mL)	–	–	–	–	–
CC[C@H](C)[C@@H]1NC(=O)[C@H](CCCCN)NC(=O)[C@H](CC(=O)O)NC(=O)[C@H](Cc2ccccc2)NC(=O)[C@H](CC(C)C)NC(=O)[C@H](CCCNC(=N)N)NC(=O)CNC(=O)CNC(=O)[C@H](C)NC(=O)CNC(=O)[C@H](CCCNC(=N)N)NC(=O)[C@H](CC(C)C)NC(=O)[C@H](Cc2ccccc2)NC(=O)[C@H](CC(=O)O)NC(=O)[C@H](CCCCN)NC(=O)[C@H]([C@@H](C)CC)NC(=O)[C@H](CCCNC(=N)N)NC(=O)[C@H](CCC(N)=O)NC(=O)[C@H](C(C)C)NC(=O)[C@H]([C@@H](C)CC)NC(=O)[C@H](CCCNC(=N)N)NC(=O)[C@H](CCCCN)NC(=O)CNC(=O)CNC(=O)[C@H](C)NC(=O)CNC(=O)[C@H](CCCCN)NC(=O)[C@H](CCCNC(=N)N)NC(=O)[C@H]([C@@H](C)CC)NC(=O)[C@H](C(C)C)NC(=O)[C@H](CCC(N)=O)NC(=O)[C@H](CCCNC(=N)N)NC1=O [retro-cd4] (cyclo(AGGKRIVQRIKDFLRGAGGRLFDKIRQVIRKG))	–	–	–	–	–	2.5 (≈ 8.98 µg/mL)	0.625 (≈ 2.25 µg/mL)	–	–
CC[C@H](C)[C@@H]1NC(=O)[C@H](CCCNC(=N)N)NC(=O)[C@H](CCC(N)=O)NC(=O)[C@H](C(C)C)NC(=O)[C@H]([C@@H](C)CC)NC(=O)[C@H](CCCNC(=N)N)NC(=O)[C@H](CCCCN)NC(=O)[C@H](C)NC(=O)CNC(=O)[C@H](CCCNC(=N)N)NC(=O)[C@H](CC(C)C)NC(=O)[C@H](Cc2ccccc2)NC(=O)[C@H](CC(=O)O)NC(=O)[C@H](CCCCN)NC(=O)[C@H]([C@@H](C)CC)NC(=O)[C@H](CCCNC(=N)N)NC(=O)[C@H](CCC(N)=O)NC(=O)[C@H](C(C)C)NC(=O)[C@H]([C@@H](C)CC)NC(=O)[C@H](CCCNC(=N)N)NC(=O)[C@H](CCCCN)NC(=O)[C@H](C)NC(=O)CNC(=O)[C@H](CCCNC(=N)N)NC(=O)[C@H](CC(C)C)NC(=O)[C@H](Cc2ccccc2)NC(=O)[C@H](CC(=O)O)NC(=O)[C@H](CCCCN)NC1=O [cd2] (cyclo(AKRIVQRIKDFLRGAKRIVQRIKDFLRG))	1.25 (≈ 4.21 µg/mL)	0.625 (≈ 2.1 µg/mL)	–	0.625 (≈ 2.1 µg/mL)	–	–	–	~30	–
CC[C@H](C)[C@@H]1NC(=O)[C@H](CCCCN)NC(=O)[C@H](CC(=O)O)NC(=O)[C@H](Cc2ccccc2)NC(=O)[C@H](CC(C)C)NC(=O)[C@H](CCCNC(=N)N)NC(=O)CNC(=O)CNC(=O)[C@H](CS)NC(=O)CNC(=O)[C@H](CCCCN)NC(=O)[C@H](CCCNC(=N)N)NC(=O)[C@H]([C@@H](C)CC)NC(=O)[C@H](C(C)C)NC(=O)[C@H](CCC(N)=O)NC(=O)[C@H](CCCNC(=N)N)NC(=O)[C@H]([C@@H](C)CC)NC(=O)[C@H](CCCCN)NC(=O)[C@H](CC(=O)O)NC(=O)[C@H](Cc2ccccc2)NC(=O)[C@H](CC(C)C)NC(=O)[C@H](CCCNC(=N)N)NC(=O)CNC(=O)CNC(=O)[C@H](C)NC(=O)CNC(=O)[C@H](CCCCN)NC(=O)[C@H](CCCNC(=N)N)NC(=O)[C@H]([C@@H](C)CC)NC(=O)[C@H](C(C)C)NC(=O)[C@H](CCC(N)=O)NC(=O)[C@H](CCCNC(=N)N)NC1=O [Peptide 2retro-cd4] (cyclo(CGGRLFDKIRQVIRKGAGGRLFDKIRQVIRKG))	1.25 (≈ 4.53 µg/mL)	0.625 (≈ 2.27 µg/mL)	2.5 (≈ 9.06 µg/mL)	1.25 (≈ 4.53 µg/mL)	–	–	–	–	–
CC(C)C[C@@H]1NC(=O)CNC(=O)[C@H](CC(N)=O)NC(=O)[C@H](CCCNC(=N)N)NC(=O)[C@H]([C@@H](C)O)NC(=O)[C@@H]2CSSC[C@@H]3NC(=O)[C@H]([C@@H](C)O)NC(=O)CNC(=O)CNC(=O)[C@H](C(C)C)NC(=O)[C@@H]4CSSC[C@H](NC(=O)[C@H]([C@@H](C)O)NC(=O)[C@H](CSSC[C@H](NC(=O)[C@H](C(C)C)NC(=O)[C@@H]5CCCN5C1=O)C(=O)NCC(=O)N[C@@H](CCC(=O)O)C(=O)N[C@@H]([C@@H](C)O)C(=O)N4)NC(=O)CNC(=O)[C@@H]1CCCN1C(=O)[C@H]([C@@H](C)O)NC(=O)[C@H](CC(N)=O)NC3=O)C(=O)N[C@@H](CO)C(=O)N[C@@H](Cc1c[nH]c3ccccc13)C(=O)N1CCC[C@H]1C(=O)N[C@@H](C(C)C)C(=O)N2 [kalata B1, reference compound]	–	–	–	–	–	–	–	–	80
CC[C@H](C)[C@@H]1NC(=O)[C@H](CCCCN)NC(=O)[C@H](CC(=O)O)NC(=O)[C@H](Cc2ccccc2)NC(=O)[C@H](CC(C)C)NC(=O)[C@H](CCCNC(=N)N)NC(=O)CNC(=O)[C@H](C)NC(=O)CNC(=O)[C@H](CCCNC(=N)N)NC(=O)[C@H](CC(C)C)NC(=O)[C@H](Cc2ccccc2)NC(=O)[C@H](CC(=O)O)NC(=O)[C@H](CCCCN)NC(=O)[C@H]([C@@H](C)CC)NC(=O)[C@H](CCCNC(=N)N)NC(=O)[C@H](CCC(N)=O)NC(=O)[C@H](C(C)C)NC(=O)[C@H]([C@@H](C)CC)NC(=O)[C@H](CCCNC(=N)N)NC(=O)[C@H](CCCCN)NC(=O)CNC(=O)[C@H](C)NC(=O)CNC(=O)[C@H](CCCCN)NC(=O)[C@H](CCCNC(=N)N)NC(=O)[C@H]([C@@H](C)CC)NC(=O)[C@H](C(C)C)NC(=O)[C@H](CCC(N)=O)NC(=O)[C@H](CCCNC(=N)N)NC1=O [retro-cd3] (cyclo(AGKRIVQRIKDFLRGAGRLFDKIRQVIRKG))	1.25 (≈ 4.35 µg/mL)	1.25 (≈ 4.35 µg/mL)	2.5 (≈ 8.7 µg/mL)	1.25 (≈ 4.35 µg/mL)	–	–	–	–	–
